The record followed here is patent US20230093099A1, “COMPOUNDS AND METHODS OF TREATING CANCERS” (CULLGEN (SHANGHAI), INC., priority 2019, published 2023).

The test system of this experiment is RS4;11 cells. The experiment is described as follows: Cell viability assay (CellTiter-Glo) in RS4;11 cells. The class given is cell-based. The note with it: Homo sapiens, 72 h; RS4;11 cells; cell viability, 3 days, CellTiter-Glo; read-out: IC50. The essentials: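 Three-day compound treatment of RS4;11 ALL cells (5000/well, 3-fold dilution series of 8 or 12 points), with IC50 from a nonlinear least-squares fit to CellTiter-Glo viability data.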
For orientation: ATP-based viability assays read luminescence as a measure of living cells.
With `O=C1CCC(N2C(=O)c3ccc(NCCC(=O)N4CCC(n5cc(-c6cnc7cccc(-c8cc(F)c(CN9CCOCC9)c(F)c8)c7n6)cn5)CC4)cc3C2=O)C(=O)N1` (centres unmarked) [JA-190, 5-((3-(4-(4-(8-(3,5-Difluoro-4-(morpholinomethyl)phenyl)quinoxalin-2-yl)-1H-pyrazol-1-yl)piperidin-1-yl)-3-oxopropyl)amino)-2-(2,6-dioxopiperidin-3-yl)isoindoline-1,3-dione], the IC50 came out at 5.16 µM. As to `Cc1ncsc1-c1ccc(CNC(=O)[C@@H]2C[C@@H](O)CN2C(=O)[C@@H](NC(=O)CCCCCC(=O)N2CCN(c3ccc(Nc4nc5cccc(-c6ccc(S(C)(=O)=O)cc6)n5n4)cc3)CC2)C(C)(C)C)cc1` [JA-076, (2S,4R)-1-((S)-3,3-Dimethyl-2-(7-(4-(4-((5-(4-(methylsulfonyl)phenyl)-[1,2,4]triazolo[1,5-a]pyridin-2-yl)amino)phenyl)piperazin-1-yl)-7-oxoheptanamido)butanoyl)-4-hydroxy-N-(4-(4-methylthiazol-5-yl)benzyl)pyrrolidine-2-carboxamide], the IC50 was over 10 µM. In the case of `Cc1ncsc1-c1ccc(CNC(=O)[C@@H]2C[C@@H](O)CN2C(=O)[C@@H](NC(=O)CCOCCOCCOCCOCCOCCC(=O)N2CCC(n3cc(-c4cnc5cccc(-c6cc(F)c(CN7CCOCC7)c(F)c6)c5n4)cn3)CC2)C(C)(C)C)cc1` [JA-044, (2S,4R)-1-[(2S)-2-[3-[2-[2-[2-[2-[3-[4-[4-[8-[3,5-Difluoro-4-(morpholinomethyl)phenyl]quinoxalin-2-yl]pyrazol-1-yl]-1-piperidyl]-3-oxo-propoxy]ethoxy]ethoxy]ethoxy]ethoxy]propanoylamino]-3,3-dimethyl-butanoyl]-4-hydroxy-N-[[4-(4-methylthiazol-5-yl)phenyl]methyl]pyrrolidine-2-carboxamide] it was over 10 µM. `CS(=O)(=O)c1ccc(-c2cccc3nc(Nc4ccc(N5CCN(CC(=O)NCCOCCOCCOCCOCCOCCNc6ccc7c(c6)C(=O)N(C6CCC(=O)NC6=O)C7=O)CC5)cc4)nn23)cc1` (centres unmarked) [JA-211, N-(17-((2-(2,6-Dioxopiperidin-3-yl)-1,3-dioxoisoindolin-5-yl)amino)-3,6,9,12,15-pentaoxaheptadecyl)-2-(4-(4-((5-(4-(methylsulfonyl)phenyl)-[1,2,4]triazolo[1,5-a]pyridin-2-yl)amino)phenyl)piperazin-1-yl)acetamide]: the IC50 is over 10 µM. For the compound `Cc1ncsc1-c1ccc(CNC(=O)[C@@H]2C[C@@H](O)CN2C(=O)[C@@H](NC(=O)CCCCC(=O)N2CCN(c3ccc(Nc4nc5cccc(-c6ccc(S(C)(=O)=O)cc6)n5n4)cc3)CC2)C(C)(C)C)cc1` [JA-074, (2S,4R)-1-((S)-3,3-Dimethyl-2-(6-(4-(4-((5-(4-(methylsulfonyl)phenyl)-[1,2,4]triazolo[1,5-a]pyridin-2-yl)amino)phenyl)piperazin-1-yl)-6-oxohexanamido)butanoyl)-4-hydroxy-N-(4-(4-methylthiazol-5-yl)benzyl)pyrrolidine-2-carboxamide], the concentration for half-maximal inhibition (IC50) is over 10 µM. With `Cc1ncsc1-c1ccc(CNC(=O)[C@@H]2C[C@@H](O)CN2C(=O)[C@@H](NC(=O)CCCCCCCNC(=O)CN2CCN(c3ccc(Nc4nc5cccc(-c6ccc(S(C)(=O)=O)cc6)n5n4)cc3)CC2)C(C)(C)C)cc1` [JA-124, (2S,4R)-1-((S)-3,3-Dimethyl-2-(8-(2-(4-(4-((5-(4-(methylsulfonyl)phenyl)-[1,2,4]triazolo[1,5-a]pyridin-2-yl)amino)phenyl)piperazin-1-yl)acetamido)octanamido)butanoyl)-4-hydroxy-N-(4-(4-methylthiazol-5-yl)benzyl)pyrrolidine-2-carboxamide], the IC50 was over 10 µM. As to `Cc1cnc(Nc2ccc(N3CCN(C(=O)CCOCCOCCOCCOCCOCCC(=O)N[C@H](C(=O)N4C[C@H](O)C[C@H]4C(=O)NCc4ccc(-c5scnc5C)cc4)C(C)(C)C)CC3)cc2)nc1Nc1cccc(S(=O)(=O)NC(C)(C)C)c1` [JA-037, (2S,4R)-1-((S)-2-(tert-Butyl)-22-(4-(4-((4-((3-(N-(tert-butyl)sulfamoyl)phenyl)amino)-5-methylpyrimidin-2-yl)amino)phenyl)piperazin-1-yl)-4,22-dioxo-7,10,13,16,19-pentaoxa-3-azadocosanoyl)-4-hydroxy-N-(4-(4-methylthiazol-5-yl)benzyl)pyrrolidine-2-carboxamide], the IC50 is over 10 µM.

With `Cc1cnc(Nc2ccc(N3CCN(C(=O)CCOCCOCCNc4ccc5c(c4)C(=O)N(C4CCC(=O)NC4=O)C5=O)CC3)cc2)nc1Nc1cccc(S(=O)(=O)NC(C)(C)C)c1` (centres unmarked) [JA-233, N-(tert-butyl)-3-((2-((4-(4-(3-(2-(2-((2-(2,6-dioxopiperidin-3-yl)-1,3-dioxoisoindolin-5-yl)amino)ethoxy)ethoxy)propanoyl)piperazin-1-yl)phenyl)amino)-5-methylpyrimidin-4-yl)amino)benzenesulfonamide], the IC50 was 0.287 µM.

For the compound `Cc1cnc(Nc2ccc(N3CCN(CC(=O)NCCOCCOCCOCCOCCNc4cccc5c4C(=O)N(C4CCC(=O)NC4=O)C5=O)CC3)cc2)nc1Nc1cccc(S(=O)(=O)NC(C)(C)C)c1` (centres unmarked) [JA-089, 2-(4-(4-((4-((3-(N-(tert-Butyl)sulfamoyl)phenyl)amino)-5-methylpyrimidin-2-yl)amino)phenyl)piperazin-1-yl)-N-(14-((2-(2,6-dioxopiperidin-3-yl)-1,3-dioxoisoindolin-4-yl)amino)-3,6,9,12-tetraoxatetradecyl)acetamide], the IC50 is 0.975 µM. Consider `O=C(CN1CCC(n2cc(-c3cnc4cccc(-c5cc(F)c(CN6CCOCC6)c(F)c5)c4n3)cn2)CC1)NCCOCCOCCOCCNc1ccc2c(c1)C(=O)N(C1CCC(=O)NC1=O)C2=O` (centres unmarked) [JA-171, 2-(4-(4-(8-(3,5-Difluoro-4-(morpholinomethyl)phenyl)quinoxalin-2-yl)-1H-pyrazol-1-yl)piperidin-1-yl)-N-(2-(2-(2-(2-((2-(2,6-dioxopiperidin-3-yl)-1,3-dioxoisoindolin-5-yl)amino)ethoxy)ethoxy)ethoxy)ethyl)acetamide], for which the IC50 was over 10 µM. Take `Cn1c(=O)n(C2CCC(=O)NC2=O)c2ccc(NCCCCCC(=O)N3CCC(n4cc(-c5cnc6cccc(-c7cc(F)c(CN8CCOCC8)c(F)c7)c6n5)cn4)CC3)cc21` (centres unmarked) [JA-288, 3-(5-((6-(4-(4-(8-(3,5-Difluoro-4-(morpholinomethyl)phenyl)quinoxalin-2-yl)-1H-pyrazol-1-yl)piperidin-1-yl)-6-oxohexyl)amino)-3-methyl-2-oxo-2,3-dihydro-1H-benzo[d]imidazol-1-yl)piperidine-2,6-dione]: the IC50 is over 0.5 µM. To `Cc1ncsc1-c1ccc(CNC(=O)[C@@H]2C[C@@H](O)CN2C(=O)[C@@H](NC(=O)CCCCCCCCCC(=O)N2CCC(n3cc(-c4cnc5cccc(-c6cc(F)c(CN7CCOCC7)c(F)c6)c5n4)cn3)CC2)C(C)(C)C)cc1` [JA-059, (2S,4R)-1-[(2S)-2-[[11-[4-[4-[8-[3,5-Difluoro-4-(morpholinomethyl)phenyl]quinoxalin-2-yl]pyrazol-1-yl]-1-piperidyl]-11-oxo-undecanoyl]amino]-3,3-dimethyl-butanoyl]-4-hydroxy-N-[[4-(4-methylthiazol-5-yl)phenyl]methyl]pyrrolidine-2-carboxamide] belongs over 10 µM.

On to `Cc1cnc(Nc2ccc(N3CCN(CC(=O)NCCCCCCCC(=O)N[C@H](C(=O)N4C[C@H](O)C[C@H]4C(=O)NCc4ccc(-c5scnc5C)cc4)C(C)(C)C)CC3)cc2)nc1Nc1cccc(S(=O)(=O)NC(C)(C)C)c1` [JA-103, (2S,4R)-1-((S)-2-(8-(2-(4-(4-((4-((3-(N-(tert-Butyl)sulfamoyl)phenyl)amino)-5-methylpyrimidin-2-yl)amino)phenyl)piperazin-1-yl)acetamido)octanamido)-3,3-dimethylbutanoyl)-4-hydroxy-N-(4-(4-methylthiazol-5-yl)benzyl)pyrrolidine-2-carboxamide], for which the IC50 is 8.96 µM.

As to `Cc1cnc(Nc2ccc(N3CCN(CC(=O)NCCNc4ccc5c(c4)C(=O)N(C4CCC(=O)NC4=O)C5=O)CC3)cc2)nc1Nc1cccc(S(=O)(=O)NC(C)(C)C)c1` (centres unmarked) [JA-242, 2-(4-(4-((4-((3-(N-(tert-butyl)sulfamoyl)phenyl)amino)-5-methylpyrimidin-2-yl)amino)phenyl)piperazin-1-yl)-N-(2-((2-(2,6-dioxopiperidin-3-yl)-1,3-dioxoisoindolin-5-yl)amino)ethyl)acetamide], the IC50 stood at 0.543 µM. Turning to `O=C1CCC(N2Cc3ccc(NCCCCCC(=O)N4CCC(n5cc(-c6cnc7cccc(-c8cc(F)c(CN9CCOCC9)c(F)c8)c7n6)cn5)CC4)cc3C2=O)C(=O)N1` (centres unmarked) [JA-272, 3-(6-((6-(4-(4-(8-(3,5-Difluoro-4-(morpholinomethyl)phenyl)quinoxalin-2-yl)-1H-pyrazol-1-yl)piperidin-1-yl)-6-oxohexyl)amino)-1-oxoisoindolin-2-yl)piperidine-2,6-dione], the IC50 is 0.52 µM. `O=C(CN1CCC(n2cc(-c3cnc4cccc(-c5cc(F)c(CN6CCOCC6)c(F)c5)c4n3)cn2)CC1)NCCOCCOCCOCCOCCNc1ccc2c(c1)C(=O)N(C1CCC(=O)NC1=O)C2=O` (centres unmarked) [JA-172, 2-(4-(4-(8-(3,5-Difluoro-4-(morpholinomethyl)phenyl)quinoxalin-2-yl)-1H-pyrazol-1-yl)piperidin-1-yl)-N-(14-((2-(2,6-dioxopiperidin-3-yl)-1,3-dioxoisoindolin-5-yl)amino)-3,6,9,12-tetraoxatetradecyl)acetamide]: the IC50 was over 10 µM.

For the compound `Cc1cnc(Nc2ccc(N3CCN(C(=O)CCOCCNc4ccc5c(c4)C(=O)N(C4CCC(=O)NC4=O)C5=O)CC3)cc2)nc1Nc1cccc(S(=O)(=O)NC(C)(C)C)c1` (centres unmarked) [JA-232, N-(tert-butyl)-3-((2-((4-(4-(3-(2-((2-(2,6-dioxopiperidin-3-yl)-1,3-dioxoisoindolin-5-yl)amino)ethoxy)propanoyl)piperazin-1-yl)phenyl)amino)-5-methylpyrimidin-4-yl)amino)benzenesulfonamide], the IC50 is over 10 µM.

For orientation: IC50 means the concentration at which inhibition is half-maximal.
